Paper PMC10049699, “Identification and Empiric Evaluation of New Inhibitors of the Multidrug Transporter P-Glycoprotein (ABCB1)” (International Journal of Molecular Sciences, 2023)
“Also recorded” adds a separate entry of the source.

Key:
Format in all cases: cell-based
Flp-In-ABCB1 cells = test: Taxol challenge assay (resensitisation to taxol); conditions: test compound at 100 nM, three-day period
Description: (§1) The four compounds are potent inhibitors of calcein-AM transport, but can they inhibit the efflux of chemotherapeutic drugs. To address this question, we first substituted a fluorescent derivative of the anticancer drug taxol for calcein-AM in a transport assay. […] We next tested whether the drugs would sensitise the Flp-In-ABCB1 cells to the clinically relevant form of taxol. The Flp-In-ABCB1 cells and their parental Flp-In cells were challenged over a three-day period with a range of concentrations of taxol in the presence and absence of test compounds at 100 nM concentration.
(§2) Flp-In-293 and Flp-In-ABCB1-12His cells (1 × 10^4) were seeded into a 96-well dish in 100 μL of medium, as above. Taxol (Cambridge Bioscience, Cambridge, UK) was added to a final concentration ranging from 0 nM to 10 μM in the presence or absence of inhibitors at 100 nM. The cells were cultured for a further 72 h, after which the medium was aspirated, and the cells were detached with 30 μL TrypLE Express (ThermoFisher Sci, Waltham, MA, USA) before quenching with 75 μL transport buffer and transfer to flow cytometry tubes. Cells of normal size and granularity, gated on the zero-drug condition and then applied to all samples, were counted in an ACEA NovoCyte flow cytometer (Agilent Technologies, Santa Clara, CA, USA). Cell number data were analysed in Graphpad PRISM (MacOS Version 9.4.1; GraphPad Software, San Diego, CA, USA). Curve fitting and statistical analysis was performed as above.

ABCB1 [1] = biological target: T1, ABCB1 (Homo sapiens, UniProt P08183); test: OG-taxol efflux inhibition assay in Flp-In-ABCB1 cells, flow cytometry; conditions: 100 nM test compound, OG-taxol 0.4 μM
T1 construct: expressed in transfected cells
Description: as §1
(§3) Flp-In-293 and Flp-In-ABCB1-12His cells were grown as monolayers in Dulbecco’s modified Eagle medium (DMEM; ThermoFisher Sci, Waltham, MA, USA) supplemented with 10% foetal bovine serum (FBS; ThermoFisher Sci, Waltham, MA, USA). The cell lines were incubated in a humidified incubator at a temperature of 37 °C in an atmosphere of 5% CO2. For the drug transport assay, cells (3 × 10^5 per well) were seeded in a 24-well, flat-bottomed plate (Sarstedt AG and Co., Nümbrecht, Germany) in 500 μL growth medium and incubated for 24 h, as above. The medium was aspirated, and the cells were washed with the transport buffer (phenol-red free DMEM, with 1% FBS). Next, the cells were incubated with calcein-AM (Invitrogen, Waltham, MA, USA) at 250 nM or OG-taxol (Invitrogen, Waltham, MA, USA) at 0.4 μM in 200 μL transport buffer for 30 min at 37 °C in the presence or absence of inhibitor (Tariquidar was purchased from MedChemExpress (Monmouth Junction, NJ, USA) and the test inhibitors were from Chembridge Corporation (San Diego, CA, USA); Table 2). All test compounds, tariquidar, and calcein-AM were solubilized in DMSO and further diluted in transport buffer for the transport assay. The concentration of DMSO in the final solution never exceeded 1.1%, at which concentration it has no apparent effect on the cells or the function of ABCB1. The medium was then aspirated, and cells were washed with ice-cold transport buffer and harvested with 25 μL trypsin (TrypLE express enzyme; ThermoFisher Sci, Waltham, MA, USA). The cells were recovered in a flow cytometry tube in 300 μL ice-cold transport buffer for flow cytometry using a BD LSR II flow cytometer (Becton Dickinson, Franklin Lakes, NJ, USA).

Flp-In parental cells = test: Taxol challenge assay, parental cells / growth with inhibitor alone; conditions: for effect on the growth of the Flp-In parental cells: test compound at 100 nM; for cytotoxicity of test compound: 100 nM, three-day (72 h) period, cell line not specified
Description: as §1, §2

ABCB1 [2] = biological target: T1, ABCB1; test: calcein-AM drug transport (accumulation) assay in live Flp-In-ABCB1 cells, flow cytometry; conditions: for IC50: Flp-In-ABCB1 cells, 30 min, n = 3 biological repeats, read-out: IC50 for inhibition of ABCB1 transport activity; for mean bottom plateau value of ABCB1 activity curve (efficacy): ratio of calcein content of ABCB1 non-expressing cells to whole population, full inhibition at 1.0; for effect on ABCB1: preliminary data, up to a concentration of 100 nM
Experimental: We have previously integrated a single copy of pcDNA5/FRT-ABCB1-12His into the genome of Flp-In 293 cells to generate the Flp-In-ABCB1 cell line. To prevent possible drug–drug interactions during the transport assay, the Flp-In-ABCB1 cells were cultured in the absence of hygromycin, which is normally used to select for the continued expression of the hygromycin resistance gene carried on the pcDNA5/FRT plasmid. […] We also used the non-toxic cell-permeant dye calcein-AM as a transport substrate of ABCB1 [35, 36].
The concentration of calcein-AM was titrated until the ABCB1-positive cells began to accumulate calcein. […] This concentration was used in all further live cell transport assays. To test whether the assay could be applied to drug inhibition studies, we incubated the Flp-In-ABCB1 cells with calcein-AM in the presence of the third-generation inhibitor tariquidar.
These are the cells that no longer express ABCB1 (population […] in Figure 2B) due either to deletion of the plasmid from the genome or, perhaps more likely, silencing of the locus by chromatin condensation. These cells survive in the absence of hygromycin selection, but they are useful as they provide an internal negative control that can be easily identified in the single channel histogram at the lowest level of inhibitor. Transport activity of the ABCB1 was, thus, calculated using the fold difference in median drug accumulation by this ABCB1 non-expressing population G4 at the lowest concentration of inhibitor versus the median drug accumulation across all cells (population G5), as described in Equation (1). (1) Median drug accumulation in ABCB1 non−expressing cells G4/Median drug accumulation in the whole population G5
as §3
In order to correlate ABCB1 expression with calcein-AM efflux activity, a slightly different order was used, as described previously. Briefly, the cells were first detached from the well and incubated with saturating levels of primary antibody 4E3 (0.5 μg, Abcam, Cambridge, UK) in 100 μL transport buffer on ice for 30 min. […]

[3] = Taxol challenge assay (resensitisation to taxol); conditions: human; Flp-In-ABCB1 (ABCB1 wt) cells, three-day culture, n = 3; read-out: IC50 for taxol (cell number) in the absence of inhibitor
Description: as §1, §2

[4] = ratio of IC50 values, calcein-AM assay

T1 sequence (P08183 whole entry): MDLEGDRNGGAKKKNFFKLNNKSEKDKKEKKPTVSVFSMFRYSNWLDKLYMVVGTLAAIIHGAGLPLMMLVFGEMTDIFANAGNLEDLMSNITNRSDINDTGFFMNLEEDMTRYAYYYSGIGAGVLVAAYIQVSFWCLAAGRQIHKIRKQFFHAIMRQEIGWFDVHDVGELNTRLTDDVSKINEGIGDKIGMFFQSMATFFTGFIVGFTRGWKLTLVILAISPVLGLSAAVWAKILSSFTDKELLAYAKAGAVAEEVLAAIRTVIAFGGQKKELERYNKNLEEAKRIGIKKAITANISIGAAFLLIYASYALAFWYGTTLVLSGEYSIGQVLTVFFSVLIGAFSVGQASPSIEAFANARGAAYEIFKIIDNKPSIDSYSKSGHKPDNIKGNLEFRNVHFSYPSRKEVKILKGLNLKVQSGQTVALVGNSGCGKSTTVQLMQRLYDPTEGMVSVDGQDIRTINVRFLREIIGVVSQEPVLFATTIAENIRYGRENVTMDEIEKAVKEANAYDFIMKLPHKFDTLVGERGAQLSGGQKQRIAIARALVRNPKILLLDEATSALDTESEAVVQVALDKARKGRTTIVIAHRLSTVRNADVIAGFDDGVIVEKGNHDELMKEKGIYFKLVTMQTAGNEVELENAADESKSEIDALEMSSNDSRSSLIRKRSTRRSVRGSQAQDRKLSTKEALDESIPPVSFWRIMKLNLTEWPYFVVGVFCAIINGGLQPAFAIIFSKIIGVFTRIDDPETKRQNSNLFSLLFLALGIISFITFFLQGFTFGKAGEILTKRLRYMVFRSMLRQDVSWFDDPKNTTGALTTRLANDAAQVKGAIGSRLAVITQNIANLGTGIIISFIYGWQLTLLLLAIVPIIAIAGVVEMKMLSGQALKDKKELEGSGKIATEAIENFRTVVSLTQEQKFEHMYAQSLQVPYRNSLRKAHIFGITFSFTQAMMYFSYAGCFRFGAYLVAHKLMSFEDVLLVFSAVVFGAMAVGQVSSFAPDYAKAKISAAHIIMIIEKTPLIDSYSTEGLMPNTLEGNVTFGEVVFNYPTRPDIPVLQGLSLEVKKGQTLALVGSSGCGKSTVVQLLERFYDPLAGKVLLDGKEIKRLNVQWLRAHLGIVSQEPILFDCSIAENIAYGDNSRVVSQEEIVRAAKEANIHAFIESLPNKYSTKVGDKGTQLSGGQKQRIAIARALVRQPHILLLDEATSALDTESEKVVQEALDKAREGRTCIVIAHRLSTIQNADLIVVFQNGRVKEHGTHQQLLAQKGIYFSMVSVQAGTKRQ

Compound	inhibition of OG-taxol efflux by ABCB1 (ABCB1 [1])	IC50 (ABCB1 [2]; 250 nM calcein-AM) [nM]	fold less potent than tariquidar (ABCB1 [2]; [4]) [fold]	mean bottom plateau value of ABCB1 activity curve (efficacy) (ABCB1 [2])	also measured
O=C1CCC(CCNCc2ccccc2)N1Cc1ccc(-n2cccn2)cc1 (stereo not drawn) [A, 5-[2-(benzylamino)ethyl]-1-[4-(1H-pyrazol-1-yl)benzyl]-2-pyrrolidinone]	inhibition of OG-taxol efflux	1.4	12	1.0	resensitisation of Flp-In-ABCB1 cells to taxol (Flp-In-ABCB1 cells): resensitised; effect on the growth of the Flp-In parental cells (Flp-In parental cells; three-day culture): no effect; also recorded: do not inhibit cell growth
Cc1ccc(CNC(=O)C2CCN(c3cc(C4CC(N)C4)nc(C)n3)CC2)cc1.Cl.Cl (stereo not drawn) [B, 1-[6-(3-aminocyclobutyl)-2-methylpyrimidin-4-yl]-N-(4-methylbenzyl)piperidine-4-carboxamide dihydrochloride]					effect on ABCB1 (ABCB1 [2]; 250 nM calcein-AM): no effect
Cc1nnc(NS(=O)(=O)c2ccc3c(c2)CN(C(=O)[C@H](N)C(C)C)CC3)s1 [C, N-(5-methyl-1,3,4-thiadiazol-2-yl)-2-D-valyl-1,2,3,4-tetrahydroisoquinoline-7-sulfonamide]					effect on ABCB1 (ABCB1 [2]; 250 nM calcein-AM): no effect
Cc1cccc(N2CCN(CC(=O)Nc3nnc(CCN(C)C)s3)CC2)c1 [D, N-{5-[2-(dimethylamino)ethyl]-1,3,4-thiadiazol-2-yl}-2-[4-(3-methylphenyl)piperazin-1-yl]acetamide]	inhibition of OG-taxol efflux	23.6	200	0.58	resensitisation of Flp-In-ABCB1 cells to taxol (Flp-In-ABCB1 cells): resensitised; effect on the growth of the Flp-In parental cells (Flp-In parental cells; three-day culture): no effect; also recorded: do not inhibit cell growth; fold less potent than test compound 'A' (ABCB1 [2]; [4]): 17 fold
COc1cc2c(cc1OC)CN(CCc1ccc(NC(=O)c3cc(OC)c(OC)cc3NC(=O)c3cnc4ccccc4c3)cc1)CC2 [Tariquidar, N-[2-[[4-[2-(6,7-dimethoxy-3,4-dihydro-1H-isoquinolin-2-yl)ethyl]phenyl]carbamoyl]-4,5-dimethoxyphenyl]quinoline-3-carboxamide, reference compound]		0.114		0.78	inhibition of ABCB1 (calcein accumulation to level of parental Flp-In cells) (ABCB1 [2]; 1 nM tariquidar, 250 nM calcein-AM): fully inhibited
CC(=O)O[C@H]1C(=O)[C@@]2(C)[C@H]([C@H](OC(=O)c3ccccc3)[C@]3(O)C[C@H](OC(=O)[C@H](O)[C@@H](NC(=O)c4ccccc4)c4ccccc4)C(C)=C1C3(C)C)[C@]1(OC(C)=O)CO[C@@H]1C[C@@H]2O [taxol, reference compound]					IC50 at 72 h [3]: 125 nM; IC50 (Flp-In parental cells; 72 h, Flp-In parental cells, three-day culture, n = 3, read-out: IC50 for taxol (cell number) in the absence of inhibitor): 5 nM

Second part, led by results:

inhibition of OG-taxol efflux by ABCB1 (ABCB1 [1])	IC50 (ABCB1 [2]; 250 nM calcein-AM) [nM]	fold less potent than tariquidar (ABCB1 [2]; [4]) [fold]	mean bottom plateau value of ABCB1 activity curve (efficacy) (ABCB1 [2])	Compound	also measured
inhibition of OG-taxol efflux	14.6	128	0.93	Cc1ccc(N2CCN(c3cc(C4CC(N)C4)nc(N)n3)CC2)cc1C (stereo not drawn) [E, 4-(3-aminocyclobutyl)-6-[4-(3,4-dimethylphenyl)piperazin-1-yl]pyrimidin-2-amine]	cytotoxicity of test compound (Flp-In parental cells): did kill cells; also recorded: cytotoxic
inhibition of OG-taxol efflux	4.8	42	0.36	Cc1cccc(N2CCN(c3cc(C4CC(N)C4)nc(C4CC4)n3)CC2)c1C.Cl.Cl (stereo not drawn) [F, (3-{2-cyclopropyl-6-[4-(2,3-dimethylphenyl)-1-piperazinyl]-4-pyrimidinyl}cyclobutyl)amine dihydrochloride]	cytotoxicity of test compound (Flp-In parental cells): did kill cells; also recorded: cytotoxic
